Results published in patent US20240216355A1, “PHARMACEUTICAL COMPOSITIONS FOR USE IN THE PREVENTION AND TREATMENT OF A DISEASE OR DISORDER CAUSED BY OR ASSOCIATED WITH ONE OR MORE PREMATURE TERMINATION CODONS” (Monte Rosa Therapeutics, Inc., priority 2021, published 2024).
Like-named read-outs stand apart in the source and are kept apart here.

Experiments:
[1] = biological target: T1, Full length wild-type cereblon CRBN (Homo sapiens, UniProt Q96SW2); assay: Fluorescence polarization (FP) assay indicating cereblon binding
T1 construct: Full length wild-type cereblon CRBN (80.0 nM, 10 μL) was incubated in assay buffer
Method: Compound activity was monitored in a fluorescence polarization (FP) homogeneous assay using 1-[5-({2-[2-(2-{[2-(2,6-dioxopiperidin-3-yl)-1,3-dioxo-2,3-dihydro-1H-isoindol-4-yl]oxy}acetamido)ethoxy]ethyl}carbamoyl)pentyl]-3,3-dimethyl-2-[(1E,3E)-5-[(2E)-1,3,3-trimethyl-5-sulfo-2,3-dihydro-1H-indol-2-ylidene]penta-1,3-dien-1-yl]-3H-indol-1-ium-5-sulfonate as a fluorescent probe. Unless otherwise stated, all reagents were purchased from Sigma Aldrich. Enzymatic reactions were conducted in Perkin-Elmer Black 384 well ProxiPlate Plus (catalogue no. 6008269) in 10 μL total volume. Full length wild-type cereblon CRBN (80.0 nM, 10 μL) was incubated in assay buffer containing 20 mM HEPES (pH 8.0), […], 0.5 mM TCEP and 0.05% Tween 20 in the presence or absence of compound (300 nL). Inhibitors were stored as 10 mM DMSO stocks in an inert environment (low humidity, dark, low oxygen, room temperature) using the Storage Pod System. Compounds and DMSO were dispensed using the Echo E5XX (Labcyte Inc. USA) to give concentrations from 300 to 0.937 or 3000 to 9.3 nM in a 12 data point curve. […] Following incubation at room temperature for 30 min, the assay was initiated by dispensing the probe to a final concentration of 5 nM (2.5 nL of a 20 μM stock) using the Echo E5XX. FP was measured after a period of 12 hours using a Pherastar plate reader (BMG Labtech, Germany) exciting at 590 nm and measuring the amount of parallel and perpendicular light at 675 nm. The FP signal was subsequently normalized to the no-compound control (i.e., DMSO). Analysis and IC50 values were derived using Dotmatics (Dotmatics UK) software.

[2] = biological target: T2, GSPT1 (Homo sapiens, UniProt P15170+Q96SW2); assay: GSPT1 degradation immunofluorescence assay in CAL-51 cells; assay type: cell-based; conditions: 6 hours treatment
T2 construct: CAL-51 cells were purchased from DSMZ (cat. Number ACC302); host or cells: CAL-51 cells
Method: CAL-51 cells were purchased from DSMZ (cat. Number ACC302), sub-cultured in 90% Dulbecco's MEM (4.5 g/L glucose, Gibco 11965)+10% heat inactivated FBS (BioConcept, 2-01F1361) and incubated at 37° C., 5% CO2. For the assay, imaging microtiterplate Cell Carrier 96 Ultra (Perkin Elmer 6055302) were pre-coated with Fibronectin (Sigma F085, 30 μl at 0.2 μg/ml) in PBS (100p, Gibco 14190) for 45 min at room temperature, rinsed with PBS and CAL-51 cells (30K cells/well) were plated and let to adhere overnight. Cells were treated with compounds typically using a serial dilution ranging from 30 μM to 0.1 nM for 6 hours. Compounds were stored at 10 mM DMSO stocks. Vehicle (DMSO), positive (CC-885, 10 μM) and rescue controls (positive control plus 0.2 μM bortezomib) were also included at this stage. Cells were subsequently rinsed with PBS and fixed in 10% Formalin solution (50p, Sigma HT5011)) for 20 mins at room temperature. Following three consecutive PBS washes (100 μl), cells were permeabilized in 0.1% Triton X-100 in PBS (Sigma 93443, 50 μl) for 15 mins at room temperature. Following three further PBS washes, 50 μl blocking buffer (1% BSA, Sigma A4503, in PBS) was added for 45 min for signal-to-noise reduction. Primary antibody (human GSPT1, Sigma HPA052488) was diluted in blocking buffer (dil.1/300, 35 μl/well) and incubated with the cells overnight at 4° C. After three PBS washes, Alexa-fluor 488 coupled secondary antibodies (Invitrogen, A32731, dil. 1/1000), Alexa-fluor 647-Phalloïdin (Invitrogen, A22287, dil. 1/200) and DAPI (Thermo, #62248, dil.1/1000) were diluted in blocking buffer and incubated with the samples for 2 hours at room temperature. After three final PBS washes, samples were conserved in 100 μl PBS in the dark, until measurement. Image acquisition was performed on the Operetta High-Content Imager (Perkin-Elmer). Fluorescence intensity of Alexa-Fluor 488 (GSPT1), Alexa-Fluor 647 (Actin) and DAPI (Nucleus) were measured. For the determination of GSPT1 DC50 values, a custom algorithm implemented in the PerkinElmer image analysis software Harmony-Acapella@ was developed. After user-defined setting of adjustment parameters, the analysis was run identically without human intervention for all image fields. DAPI staining of the nuclei was used to determine the location of cells using standard nuclei detection modules. Segmentation artifacts were removed by threshold-based filters for area, roundness and intensity. The outline of the cells was determined analogously from the sum of the normalized, smoothed DAPI and Actin channel, starting from each nucleus.
The Alexa-Fluor 488 (GSPT1) signal intensity in each cell was finally measured, in order to obtain a Mean intensity per cell. GSPT1 degradation (DC50) was calculated after normalization to controls and data import in CDD vault Database, using non-linear regression.

[3] = tested on: G542X cystic fibrosis transmembrane conductance regulator (CFTR) nonsense mutation; assay: HaloTag G542X 5×5 NanoLuc reporter assay (CFTR readthrough) in HBE16 cells; assay type: cell-based, human
Method: FIG. 3A, FIG. 3B, and FIG. 3C show the effect of a representative compound of the disclosure on CFTR readthrough: Readthrough of the common G542X cystic fibrosis transmembrane conductance regulator (CFTR) nonsense mutation was carried out in the immortalized human bronchial epithelial cells HBE16. A HaloTag G542X 5×5 NanoLuc reporter assay was established in that cell line containing the CFTR readthrough cassette bearing the G542X codon as well as 5 codons upstream and downstream from the human CFTR sequence. […] The total protein assay (C) indicates no significant decrease of HBE16 cell viability following treated with the representative compound of the disclosure alone or in combination with G418 (y-axis left indicating protein μg/μL, and y-axis right indicating %).
The total protein assay (C) indicates no significant decrease of HBE16 cell viability following treated with the representative compound of the disclosure alone or in combination with ELX-02 (y-axis left indicating protein μg/μL, and y-axis right indicating %).

[4] = tested on: HBE16 cells; assay: Killing activity (EC10) in HBE16 cells after 72 hr; assay type: cell-based, human
[5] = compounds 1 to 165, read-out: Activity for GSPT1 degradation (DC50 code)
[6] = compounds 201 to 307, read-out: Activity for GSPT1 degradation (DC50 code)

T2 sequence (P15170 whole entry): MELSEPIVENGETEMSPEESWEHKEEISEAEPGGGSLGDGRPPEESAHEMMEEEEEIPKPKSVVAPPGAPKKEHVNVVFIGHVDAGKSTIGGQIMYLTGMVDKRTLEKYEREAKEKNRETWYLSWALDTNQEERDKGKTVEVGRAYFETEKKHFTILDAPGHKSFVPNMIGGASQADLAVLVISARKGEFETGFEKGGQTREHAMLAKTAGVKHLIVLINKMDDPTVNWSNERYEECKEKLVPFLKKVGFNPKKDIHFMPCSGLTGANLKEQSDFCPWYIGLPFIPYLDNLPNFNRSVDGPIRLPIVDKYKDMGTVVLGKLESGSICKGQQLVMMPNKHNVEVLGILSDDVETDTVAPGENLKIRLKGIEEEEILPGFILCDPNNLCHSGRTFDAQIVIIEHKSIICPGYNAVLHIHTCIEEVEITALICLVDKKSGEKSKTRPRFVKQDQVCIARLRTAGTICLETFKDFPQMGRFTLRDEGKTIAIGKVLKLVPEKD
T2 sequence (Q96SW2 whole entry): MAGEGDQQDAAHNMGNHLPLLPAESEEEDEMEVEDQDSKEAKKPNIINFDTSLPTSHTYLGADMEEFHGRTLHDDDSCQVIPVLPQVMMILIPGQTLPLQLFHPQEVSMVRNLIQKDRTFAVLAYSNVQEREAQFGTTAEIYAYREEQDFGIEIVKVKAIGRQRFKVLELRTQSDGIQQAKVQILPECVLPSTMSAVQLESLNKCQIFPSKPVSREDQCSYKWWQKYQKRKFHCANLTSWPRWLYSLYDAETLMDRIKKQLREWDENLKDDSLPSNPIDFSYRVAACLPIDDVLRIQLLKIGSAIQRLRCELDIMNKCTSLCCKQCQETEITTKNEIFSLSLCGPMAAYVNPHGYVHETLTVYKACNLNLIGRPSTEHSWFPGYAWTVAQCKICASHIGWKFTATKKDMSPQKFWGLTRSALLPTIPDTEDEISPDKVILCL
T2 sequence (Q16531 whole entry partner): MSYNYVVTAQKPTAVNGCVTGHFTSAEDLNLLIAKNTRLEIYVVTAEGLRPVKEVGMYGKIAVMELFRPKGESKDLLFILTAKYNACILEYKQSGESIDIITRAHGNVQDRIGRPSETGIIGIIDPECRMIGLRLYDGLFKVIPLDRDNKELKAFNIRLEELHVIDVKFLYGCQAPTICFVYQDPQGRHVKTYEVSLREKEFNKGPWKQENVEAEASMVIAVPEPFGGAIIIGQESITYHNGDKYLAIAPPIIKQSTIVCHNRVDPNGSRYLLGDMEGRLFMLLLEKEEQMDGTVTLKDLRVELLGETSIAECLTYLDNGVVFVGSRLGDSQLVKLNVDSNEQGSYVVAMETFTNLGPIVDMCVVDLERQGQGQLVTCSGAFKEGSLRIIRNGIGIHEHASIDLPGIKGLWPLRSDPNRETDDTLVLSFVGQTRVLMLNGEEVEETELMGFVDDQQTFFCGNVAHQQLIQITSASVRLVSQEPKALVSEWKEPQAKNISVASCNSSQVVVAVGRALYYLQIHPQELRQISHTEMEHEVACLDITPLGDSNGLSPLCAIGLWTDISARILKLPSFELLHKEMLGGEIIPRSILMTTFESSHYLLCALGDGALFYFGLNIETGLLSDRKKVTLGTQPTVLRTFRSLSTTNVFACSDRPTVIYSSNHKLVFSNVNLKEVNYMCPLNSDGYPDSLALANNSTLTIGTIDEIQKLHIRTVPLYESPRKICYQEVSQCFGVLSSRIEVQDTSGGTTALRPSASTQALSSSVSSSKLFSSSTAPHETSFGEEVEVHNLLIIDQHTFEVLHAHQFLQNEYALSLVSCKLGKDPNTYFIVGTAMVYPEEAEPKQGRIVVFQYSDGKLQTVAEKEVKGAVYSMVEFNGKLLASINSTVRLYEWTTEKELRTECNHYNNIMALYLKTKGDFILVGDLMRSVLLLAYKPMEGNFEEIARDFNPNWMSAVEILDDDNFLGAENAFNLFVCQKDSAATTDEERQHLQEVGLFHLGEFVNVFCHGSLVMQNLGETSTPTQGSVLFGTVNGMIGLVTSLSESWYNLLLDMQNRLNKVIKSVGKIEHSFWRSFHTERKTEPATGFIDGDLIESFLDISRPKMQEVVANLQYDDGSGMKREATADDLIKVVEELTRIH
T1 sequence (Q96SW2 whole entry): as the sequence (Q96SW2 whole entry) above

SMILES | IC50 [1] [nM] | DC50 [2, 6] [nM] | further results
Cc1c(Cl)cc(NC(=O)NCc2ccc3c(c2)C(=O)N(C2CCC(=O)NC2=O)C3)cc1CN1CCN2CCC1C2 (stereo not drawn) [Compound 154] | < 1100 | – | DC50 [2, 5]: > 300 nM
Cc1cc(C)cc(NC(=O)OCc2ccc3c(c2)C(=O)N(C2CCC(=O)NC2=O)C3)c1 (stereo not drawn) [Compound 208] | < 1100 | < 30 | –
CC1CCCCN1c1ccc(NC(=O)OCc2ccc3c(c2)C(=O)N(C2CCC(=O)NC2=O)C3)cn1 (stereo not drawn) [Compound 277] | < 1100 | < 30 | –
Cc1cc(NC(=O)OCc2ccc3c(c2)C(=O)N(C2CCC(=O)NC2=O)C3)cnc1-c1ccccc1 (stereo not drawn) [Compound 288] | < 1100 | < 30 | –
Cc1c(Cl)cc(NC(=O)NCc2ccc3c(c2)C(=O)N(C2CCC(=O)NC2=O)C3)cc1CN1CC2CCC(C1)O2 (stereo not drawn) [Compound 140] | < 1100 | – | DC50 [2, 5]: ≤ 100 nM
Cc1c(Cl)cc(NC(=O)OCc2ccc3c(c2)C(=O)N(C2CCC(=O)NC2=O)C3)cc1OC1CCN(C)C1 (stereo not drawn) [Compound 268] | < 1100 | < 30 | –
Cc1ccc(NC(=O)OCc2ccc3c(c2)C(=O)N(C2CCC(=O)NC2=O)C3)cc1OC(F)F (stereo not drawn) [Compound 224] | < 1100 | < 30 | –
O=C1CCC(N2Cc3ccc(COC(=O)Nc4ccc(N5CCCCC5)nc4)cc3C2=O)C(=O)N1 (stereo not drawn) [Compound 215] | < 1100 | < 30 | –
Cc1c(Cl)cc(NC(=O)NCc2ccc3c(c2)C(=O)N(C2CCC(=O)NC2=O)C3)cc1CC1COCCN1C (stereo not drawn) [Compound 160] | < 1100 | – | DC50 [2, 5]: ≤ 100 nM
Cc1ncc(NC(=O)OCc2ccc3c(c2)C(=O)N(C2CCC(=O)NC2=O)C3)cc1Cl (stereo not drawn) [Compound 206] | < 1100 | < 30 | –
Cc1c(Cl)cc(NC(=O)OCc2ccc3c(c2)C(=O)N(C2CCC(=O)NC2=O)C3)cc1CN1CC2CC1CO2 (stereo not drawn) [Compound 213] | < 1100 | < 30 | –
O=C1CCC(N2Cc3ccc(COC(=O)Nc4cc(CN5CCOCC5)cc(OC(F)(F)F)c4)cc3C2=O)C(=O)N1 (stereo not drawn) [Compound 204] | < 1100 | < 30 | –
CCc1cc(NC(=O)OCc2ccc3c(c2)C(=O)N(C2CCC(=O)NC2=O)C3)cnc1C (stereo not drawn) [Compound 255] | < 1100 | < 30 | –
COc1ccccc1-c1ccc(NC(=O)OCc2ccc3c(c2)C(=O)N(C2CCC(=O)NC2=O)C3)cn1 (stereo not drawn) [Compound 287] | < 1100 | < 30 | –
COc1ccc(CCNC(=O)NCc2ccc3c(c2)C(=O)N(C2CCC(=O)NC2=O)C3)cc1 (stereo not drawn) [Compound 51] | < 1100 | – | DC50 [2, 5]: > 300 nM
O=C1CCC(N2Cc3ccc(COC(=O)Nc4ccc(C5CC5)cc4)cc3C2=O)C(=O)N1 (stereo not drawn) [Compound 239] | < 1100 | < 30 | –
O=C1CCC(N2Cc3ccc(COC(=O)Nc4ccc5c(c4)OCCC5)cc3C2=O)C(=O)N1 (stereo not drawn) [Compound 292] | < 1100 | < 30 | –
Cc1ncc(NC(=O)OCc2ccc3c(c2)C(=O)N(C2CCC(=O)NC2=O)C3)cc1OC(F)(F)F (stereo not drawn) [Compound 291] | < 1100 | < 30 | –
CC1(c2ccc(NC(=O)OCc3ccc4c(c3)C(=O)N(C3CCC(=O)NC3=O)C4)cc2)CC1 (stereo not drawn) [Compound 258] | < 1100 | < 30 | –
COc1ccccc1CNC(=O)NCc1ccc2c(c1)C(=O)N(C1CCC(=O)NC1=O)C2 (stereo not drawn) [Compound 60] | < 1100 | – | DC50 [2, 5]: > 300 nM
C[C@@H](N)[C@H]1O[C@@H](O[C@@H]2[C@@H](O)[C@H](N)C[C@H](N)[C@H]2O[C@H]2O[C@H]([C@@H](C)O)[C@@H](O)[C@H](O)[C@H]2N)[C@H](O)[C@@H]1O [ELX-02] | – | – | EC50 [3]: 250000 nM; EC10 (readthrough activity, NanoLuc) ([3]; concentration used in combination): 85000 nM; EC10 (concentration resulting in 10% killing activity) [4]: 85000 nM
Cc1c(F)cc(NC(=O)OCc2ccc3c(c2)C(=O)N(C2CCC(=O)NC2=O)C3)cc1CN1CCOCC1 (stereo not drawn) [Compound 241] | < 1100 | < 30 | –
CC1(C)COc2cc(NC(=O)OCc3ccc4c(c3)C(=O)N(C3CCC(=O)NC3=O)C4)ccc21 (stereo not drawn) [Compound 283] | < 1100 | < 30 | –
Cc1c(Cl)cc(NC(=O)OCc2ccc3c(c2)C(=O)N(C2CCC(=O)NC2=O)C3)cc1CN1CCOCC1 (stereo not drawn) [Compound 202] | < 1100 | < 30 | –
Cc1c(CN2CCOCC2)cc(NC(=O)OCc2ccc3c(c2)C(=O)N(C2CCC(=O)NC2=O)C3)cc1OC(F)F (stereo not drawn) [Compound 225] | < 1100 | < 30 | –
CCOc1cc(NC(=O)OCc2ccc3c(c2)C(=O)N(C2CCC(=O)NC2=O)C3)ccc1C (stereo not drawn) [Compound 233] | < 1100 | – | –
Cc1ccccc1-c1ccc(NC(=O)OCc2ccc3c(c2)C(=O)N(C2CCC(=O)NC2=O)C3)cn1 (stereo not drawn) [Compound 286] | < 1100 | < 30 | –
